Measured values published in patent US20080004272A1, “Compositions and methods for modulating gated ion channels” (PainCeptor Pharma Corporation, priority 2006, published 2008).

The compounds below were run against T1, ASIC1a (Homo sapiens, UniProt P78348) (assay: Calcium imaging of MES-induced calcium response (FLIPR)). Conditions: ASIC1a expressing HEK293 cells, MES-induced calcium response; read-out: IC50 (FLIPR).
T1 sequence (P78348 1-528): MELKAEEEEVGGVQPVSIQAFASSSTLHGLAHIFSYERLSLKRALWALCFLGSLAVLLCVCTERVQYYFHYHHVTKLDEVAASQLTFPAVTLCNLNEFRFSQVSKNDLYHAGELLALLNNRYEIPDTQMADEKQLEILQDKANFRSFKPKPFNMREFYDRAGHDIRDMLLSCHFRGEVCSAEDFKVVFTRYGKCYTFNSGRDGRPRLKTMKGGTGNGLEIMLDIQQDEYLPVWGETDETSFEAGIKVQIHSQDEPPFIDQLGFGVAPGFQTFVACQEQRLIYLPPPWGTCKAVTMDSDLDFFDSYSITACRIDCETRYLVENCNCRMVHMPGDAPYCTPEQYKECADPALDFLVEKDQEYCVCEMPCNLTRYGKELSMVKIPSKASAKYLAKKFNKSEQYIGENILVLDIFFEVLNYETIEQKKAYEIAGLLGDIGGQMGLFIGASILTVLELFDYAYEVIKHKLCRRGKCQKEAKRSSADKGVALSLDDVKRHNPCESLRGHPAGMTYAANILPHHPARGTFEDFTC
Assay type: cell-based
Parameters: host or cells: HEK293
Procedure: […] Confluency of cells should be 80-90% on day of plating. Cells are rinsed with 10 ml of PBS and cells are re-suspended by addition of culture medium and trituration with a 25 ml pipette.
The cells are seeded at a density of approximately 1×10^6 cells/ml (100 μl/well) in black-walled, clear bottom, 96-well plates pre-treated with 10 mg/l poly-D-lysin (75 μl/well for ≧30 min). Plated cells are allowed to proliferate for 24 h before loading with dye.
Fluo-4/AM (1 mg, Molecular Probes) is dissolved in 912 μl DMSO. The Fluo-4/AM stock solution (1 mM) is diluted with culture medium to a final concentration of 2 μM (loading solution).
The culture medium is aspirated from the wells, and 50 μl of the Fluo-4/AM loading solution is added to each well. The cells are incubated at 37° C. for 30 min.
Following the second wash, 100 μl modified Assay Buffer is added to each well and the fluorescence is measured in FLIPR™ or FlexStation™ (Molecular Devices, USA), or any other suitable equipment known to the skilled in the art.
Temperature: Room temperature (20-22° C.)
First addition: 50 μl test solution at a rate of 30 μl/sec and a starting height of […]
Second addition: 50 μl MES solution (20 mM, 5 mM final concentration) at a rate of 35 μl/sec and a starting height of 150 μl.
Reading intervals: pre-incubation−10 sec×7 and 3 sec×3 antagonist phase−3 sec×7 and 10 sec×12
Addition plates (compound test plate and MES plate) are placed on the right and left positions in the FLIPR tray, respectively. Cell plates are placed in the middle position and the ASIC1a program is effectuated. FLIPR will then take the appropriate measurements in accordance with the interval settings above. Fluorescence obtained after stimulation is corrected for the mean basal fluorescence (in modified Assay Buffer).
The MES-induced peak calcium response, in the presence of test substance, is expressed relatively to the MES response alone. Test substances that block the MES-induced calcium response are re-tested in triplicates.

| SMILES | IC50 |
| --- | --- |
| C/C(=N\O)c1c2c(c(O)c3c1OCO3)CN(C)CC2 [Compound 57] | > 70 µM |
| O=C(/C=N/O)Nc1ccc(-c2ccccc2)c2ccncc12 [Compound 152] | > 70 µM |
| CN1CCc2c(-c3cccc([N+](=O)[O-])c3)cc3c(c2C1)NC(=O)/C3=N\O [Compound 29] | > 70 µM |
| CN1CCc2c(-c3ccc(C(=O)N(C)C)cc3)cc3c(c2C1)NC(=O)C3=NO [Compound 3, 4-(3-Hydroxyimino-8-methyl-2-oxo-2,3,6,7,8,9-hexahydro-1H-pyrrolo[3,2-h]isoquinolin-5-yl)-N,N-dimethyl-benzamide] | > 70 µM |
| CN1CCc2c(-c3ccc(F)cc3F)cc3c(c2C1)NC(=O)/C3=N/O [Compound 50] | > 70 µM |
| CN1CCc2c(-c3ccsc3C=O)cc3c(c2C1)NC(=O)/C3=N/O [Compound 56] | > 70 µM |
| CN1CCc2c(-c3ccc(OC(F)(F)F)cc3)cc3c(c2C1)NC(=O)/C3=N/O [Compound 54] | > 70 µM |
| CS(=O)(=O)N1CCc2c(-c3ccc(Cl)cc3)cc3c(c2C1)NC(=O)C3=NO [Compound 71, 5-(4-Chloro-phenyl)-8-methanesulfonyl-6,7,8,9-tetrahydro-1H-pyrrolo[3,2-h]isoquinoline-2,3-dione 3-oxime] | > 70 µM |
| CN1CCc2c(-c3ccccc3)cc3c(c2C1)NC(=O)/C3=N/OC1O[C@H](CO)[C@@H](O)[C@H](O)[C@H]1O (stereo partly drawn) [Compound 59] | > 70 µM |
| CN1CCc2c(cccc2-c2ccccc2)C1 [Compound 173] | > 70 µM |
| O=C1Nc2c(cc(-c3ccccc3)c3c2CCCC3)/C1=N/O [Compound 114] | > 70 µM |
| CN1CCc2c(-c3ccc(S(=O)(=O)N4CCN(CCO)CC4)cc3)cc3c(c2C1)NC(=O)C3=NO [Compound 4, 5-{4-[4-(2-Hydroxy-ethyl)-piperazine-1-sulfonyl]-phenyl}-8-methyl-6,7,8,9-tetrahydro-1H-pyrrolo[3,2-h]isoquinoline-2,3-dione 3-oxime] | > 70 µM |
| CN1CCc2c(-c3cccc(O)c3)cc3c(c2C1)NC(=O)/C3=N/O [Compound 31] | > 70 µM |
| CN1CCc2c(-c3ccc(S(=O)(=O)N4CCOCC4)cc3)cc3c(c2C1)NC(=O)C3=NO [Compound 2, 8-methyl-5-[4-(morpholine-4-sulfonyl)-phenyl]-6,7,8,9-tetrahydro-1H-pyrrolo[3,2-h]isoquinoline-2,3-dione 3-oxime] | > 70 µM |
| CC(=O)N1CCc2c(-c3ccc(Cl)cc3)cc3c(c2C1)NC(=O)C3=NO [Compound 70, 8-Acetyl-5-(4-chloro-phenyl)-6,7,8,9-tetrahydro-1H-pyrrolo[3,2-h]isoquinoline-2,3-dione 3-oxime] | > 70 µM |
| CC(=O)c1ccc(-c2cc3c(c4c2CCN(C)C4)NC(=O)/C3=N/O)s1 [Compound 26] | > 70 µM |
| CC(=O)Nc1c([N+](=O)[O-])cc(-c2ccccc2)c2c1CN(C)CC2 [Compound 154] | > 70 µM |
| CN1CCc2c(-c3cccc(N)c3)cc3c(c2C1)NC(=O)/C3=N/O [Compound 48] | > 70 µM |
| CC(=O)c1cccc(-c2cc3c(c4c2CCN(C)C4)NC(=O)/C3=N/O)c1 [Compound 47] | > 70 µM |
| CC(=O)c1ccccc1-c1cc2c(c3c1CCN(C)C3)NC(=O)/C2=N/O [Compound 32] | > 70 µM |
| CCOC(=O)N1CCc2c(Br)ccc(NC(=O)CCl)c2C1 [Compound 145] | > 70 µM |
| CN1CCc2c(-c3cccc4c3oc3ccccc34)cc3c(c2C1)NC(=O)/C3=N/O [Compound 58] | > 70 µM |
| COc1c(F)cc(F)cc1-c1cc2c(c3c1CCN(C)C3)NC(=O)/C2=N/O [Compound 60] | > 70 µM |

The remaining lines, values ahead:

| IC50 | SMILES |
| --- | --- |
| > 70 µM | CN1CCc2c(-c3ccncc3)cc3c(c2C1)NC(=O)/C3=N/O [Compound 55] |
| > 70 µM | CN1CCc2c(-c3cccc(C(F)(F)F)c3)cc3c(c2C1)NC(=O)/C3=N/O [Compound 49] |
| < 10 µM | CN1CCc2c(-c3cccc(Cl)c3)cc3c(c2C1)NC(=O)/C3=N\O [Compound 35] |
| > 70 µM | CN1CCc2c(-c3ccccc3)ccc(NC(=O)CC(=O)O)c2C1 [Compound 153] |
| > 70 µM | Cc1cc(F)ccc1-c1cc2c(c3c1CCN(C)C3)NC(=O)/C2=N/O [Compound 52] |
| < 10 µM | CCOc1ccccc1-c1cc2c(c3c1CCN(C)C3)NC(=O)/C2=N/O [Compound 37] |
| < 20 µM | CCN1CCc2c(-c3ccccc3)cc3c(c2C1)N(CC(=O)OC)C(=O)C3=NO [Compound 73, (8-Ethyl-3-hydroxyimino-2-oxo-5-phenyl-2,3,6,7,8,9-hexahydro-pyrrolo[3,2-h]isoquinolin-1-yl)-acetic acid methyl ester] |
| < 10 µM | CN1CCc2c(-c3cc(F)ccc3F)cc3c(c2C1)NC(=O)/C3=N/O [Compound 39] |
| > 70 µM | CN1CCc2c(-c3cccc(C#N)c3)cc3c(c2C1)NC(=O)/C3=N\O [Compound 28] |
| < 10 µM | C#CN1C(=O)C(=NO)c2cc(-c3ccccc3)c3c(c21)CN(CC)CC3 [Compound 72, 8-Ethyl-1-ethynyl-5-phenyl-6,7,8,9-tetrahydro-1H-pyrrolo[3,2-h]isoquinoline-2,3-dione 3-oxime] |
| < 20 µM | CN1CCc2c(-c3ccoc3)cc3c(c2C1)NC(=O)/C3=N/O [Compound 69] |
| < 10 µM | COc1cccc(-c2cc3c(c4c2CCN(C)C4)NC(=O)/C3=N\O)c1 [Compound 43] |
| > 70 µM | CN1CCc2c(-c3cccc(OC(F)(F)F)c3)cc3c(c2C1)NC(=O)/C3=N/O [Compound 51] |
| > 70 µM | CN1CCc2c(-c3cccnc3)cc3c(c2C1)NC(=O)/C3=N/O [Compound 27] |
| < 25 µM | CN1CCc2c(-c3ccc(S(=O)(=O)N4CCCCC4)cc3)cc3c(c2C1)NC(=O)C3=NO [Compound 5, 8-Methyl-5-[4-(piperidine-1-sulfonyl)-phenyl]-6,7,8,9-tetrahydro-1H-pyrrolo[3,2-h]isoquinoline-2,3-dione 3-oxime] |
| < 20 µM | CN1CCc2c(-c3ccccc3C(F)(F)F)cc3c(c2C1)NC(=O)/C3=N/O [Compound 18] |
| < 10 µM | Cc1cc(-c2cc3c(c4c2CCN(C)C4)NC(=O)/C3=N/O)ccc1F [Compound 15] |

| IC50 | SMILES |
| --- | --- |
| < 10 µM | COc1cc(F)ccc1-c1cc2c(c3c1CCN(C)C3)NC(=O)/C2=N/O [Compound 42] |
| < 10 µM | COc1ccccc1-c1cc2c(c3c1CCN(C)C3)NC(=O)/C2=N\O [Compound 34] |
| < 10 µM | CCc1ccccc1-c1cc2c(c3c1CCN(C)C3)NC(=O)/C2=N/O [Compound 40] |
| < 10 µM | COc1ncccc1-c1cc2c(c3c1CCN(C)C3)NC(=O)/C2=N/O [Compound 45] |
| < 10 µM | CN1CCc2c(-c3cc(F)cc(F)c3)cc3c(c2C1)NC(=O)/C3=N\O [Compound 17] |
| < 10 µM | COCCOc1ccccc1-c1cc2c(c3c1CCN(C)C3)NC(=O)/C2=N/O [Compound 38] |
| < 10 µM | CN1CCc2c(-c3cccc(F)c3)cc3c(c2C1)NC(=O)/C3=N\O [Compound 36] |
| < 10 µM | CN1CCc2c(-c3ccccc3F)cc3c(c2C1)NC(=O)/C3=N/O [Compound 19] |
| < 10 µM | CN1CCc2c(-c3ccccc3Oc3ccccc3)cc3c(c2C1)NC(=O)/C3=N/O [Compound 44] |
| 40 to 60 µM | CN1CCc2c(-c3cc(C(F)(F)F)cc(C(F)(F)F)c3)cc3c(c2C1)NC(=O)/C3=N\O [Compound 23] |
| < 20 µM | CN1CCc2c(-c3cccc(F)c3F)cc3c(c2C1)NC(=O)/C3=N/O [Compound 68] |
| 35 to 45 µM | CN1CCc2c(-c3ccccc3Cl)cc3c(c2C1)NC(=O)/C3=N/O [Compound 22] |
| 20 to 30 µM | CO/N=C1/C(=O)Nc2c1cc(-c1ccccc1OC)c1c2CN(C)CC1 [Compound 21] |
| 40 to 60 µM | CC(C)Oc1cccc(-c2cc3c(c4c2CCN(C)C4)NC(=O)/C3=N\O)c1 [Compound 46] |
| 40 to 60 µM | CCOc1cccc(-c2cc3c(c4c2CCN(C)C4)NC(=O)/C3=N\O)c1 [Compound 25] |
| < 10 µM | Cc1ccccc1-c1cc2c(c3c1CCN(C)C3)NC(=O)/C2=N/O [Compound 41] |
| < 10 µM | CN1CCc2c(-c3ccc(F)c(F)c3)cc3c(c2C1)NC(=O)/C3=N\O [Compound 16] |
